Results as given in patent publication US5780441A, “Sphingoglycolipid compounds and therapeutic uses thereof” (Kirin Beer Kabushiki Kaisha, priority 1993, dated 1998).

Assays:
[1] = system: mixed lymphocyte culture reaction (spleen cells of C57BL/6 and BALB/C mice); experiment: Mixed lymphocyte culture reaction (MLR); format: cell-based, mouse (C57BL/6 stimulator, BALB/C responder); details: Mus musculus, Lymphocyte, 42 hours, read-out: MLR activating rate (%); for activity at 1 µg/mL: 1 × 10^0 μg/ml; for activity at 0.1 µg/mL: 1 × 10^-1 μg/ml
Procedure: ii) Mixed lymphocyte culture reaction (MLR) of the compounds of the present invention
Spleen cells were prepared from C57BL/6 mice and treated with 50 μg/ml of mitomycin C for 30 minutes. The treated cells were used as stimulator cells, and the spleen cells of BALB/C mice as responder cells. 2×10^6 cells/ml of the both spleen cells were suspended in 10% FCS RPMI1640 as a culture medium. The above-described cells (50 μl/well) and a sample (10 μl/well) were added into wells of a round-bottomed 96 well plate, and cultured under the condition of 5% CO2 at 37° C. for 42 hours. 0.5 μCi/well of ^3 H-thymidine (^3 H-TdR) was added. After 8 hours, the cells were harvested, and the amount of uptaken ^3 H-TdR was measured by a liquid scintillation counter to calculate the ratio (%) of the uptake of ^3 H-TdR in the sample group to that in the vehicle group as the MLR activating rate.

[2] = system: mouse splenic lymphocyte; experiment: In vitro mouse splenic lymphocyte-proliferation-stimulating effect (3H-TdR uptake); format: cell-based, mouse (BDF1 female); details: Mus musculus, Splenic lymphocyte, 48 h, 2 days, read-out: Uptake of 3H-TdR (% of control), splenic lymphocytes; for activity at 1 µg/mL: 10^0 μg/ml; for activity at 0.001 µg/mL: 10^-3 μg/ml; for activity at 0.01 µg/mL: 10^-2 μg/ml; for activity at 0.1 µg/mL: 10^-1 μg/ml
Procedure: i) In vitro mouse splenic lymphocyte growth promoting effects of the present compounds
Experiment was performed with BDF1 female mice (6 weeks old) purchased from NIPPON SLC K.K. Spleens were removed from mice, and spleen cells were brayed with slide glasses and hemolized with NH4 Cl. 2×10^6cells/ml of the spleen cells which had been hemolized were suspended in 10% FCS RPMI 1640. The cell suspension (100 μl/well) and a vehicle or sample (10 μl/well) which was prepared so as to have a final level shown in Table 3 were added into wells of a round-bottomed 96 well plate, and cultured under the condition of 5% CO2 at 37° C. for 2 days. 0.5 μCi/well of ^3 H-thymidine (^3 H-TdR) was added. After 6 hours, the cells were harvested, and the amount of ^3 H-TdR uptaken into nucleus was measured by a liquid scintillation counter. The ratio (%) of the uptake of ^3 H-TdR in the sample group to that in the vehicle group was calculated and used as the in vitro mouse splenic lymphocyte-proliferation-stimulating rate.

[3] = system: mouse bone marrow cells; experiment: In vitro mouse bone marrow cell-proliferation-promoting effect (3H-TdR uptake); format: cell-based, mouse (BDF1 female); details: Mus musculus, Bone marrow cell, 96 h, 4 days, read-out: Uptake of 3H-TdR (% of control), bone marrow cells; for activity at 0.1 µg/mL: 10^-1 μg/ml; for activity at 0.01 µg/mL: 10^-2 μg/ml
Procedure: In vitro mouse bone marrow cell-proliferation-promoting effect of the present compound
Experiment was performed with BDF1 female mice (6 weeks old) purchased from NIPPON SLC K.K. Bone marrow cells were removed from the femoral bone of mice by the conventional manner, floated on 10% FCS RPMI 1640, layered over Lympholite M, and centrifuged to give a monocyte fraction. 1×10^6 cells/ml of the monocyte fraction was suspended in 10% FCS RPMI 1640. The cell suspension (100 μl/well) and a vehicle or sample (10 μl/well) which was prepared so as to have a final level shown in Table 2 were added into a wells of round-bottomed 96 well plate, and cultured under the condition of 5% CO2 at 37° C. for 4 days. 0.5 μCi/well of ^3 H-thymidine (^3 H-TdR) was added. After 6 hours, the cells were harvested, and the amount of ^3 H-TdR uptaken into nucleus was measured by a liquid scintillation counter. The ratio of the uptake of ^3 H-TdR in the sample group to that in the vehicle group was calculated and used as the activation rate for promoting in vitro mouse bone marrow cell growth.

[4] = system: P388 mouse leukemia cells; experiment: Life-span-prolonging (anti-tumor) effect on mice subcutaneously inoculated with P388 mouse leukemia cells; format: in vivo, mouse (CDF1 female); details: for Survival days ave. ± s. d. / response vs control in vivo at 0.1 mg/kg: 0.1 mg/kg i.v. on days 1, 5 and 9; for Survival days ave. ± s. d.: all marked ** (p < 0.01); for response vs control in vivo at 0.1 mg/kg: Mus musculus, P388, iv, survival vs vehicle, read-out: T/C (%)
Procedure: i) Anti-tumor effect of the compound of the present invention on mice subcutaneously inoculated with P388 mouse leukemia cells.
Experiment was performed with CDF1 female mice (6 weeks) purchased from NIPPON SLC K.K., which were divided into groups consisting of 5 animals. […]. In this connection, lentinan and picibanil were administered intravenously on days 1, 3, 5, 7 and 9 after implantation, and sizofilan was administered subcutaneously on days 1 through 9. Statistical analysis was performed according to the Mann-Whiteney test.

## CCCCCCCCCCCCCCCCCCCCCC[C@@H](O)C(=O)N[C@@H](CO[C@H]1O[C@H](CO)[C@H](O)[C@H](O[C@@H]2O[C@@H]([C@H](O)CO)[C@H](O)[C@H]2O)[C@H]1O)[C@H](O)[C@H](O)CCCCCCCCCCCCC [Compound 14, O-β-D-galactofuranosyl-(1→3)-O-α-D-galactopyranosyl-(1→1)-(2S,3S,4R)-2-amino-N-[(R)-2-hydroxytetracosanoyl]-1,3,4-heptadecanetriol]
[1]
  activity at 1 µg/mL: 261%
  activity at 0.1 µg/mL: 232%
[2]
  activity at 1 µg/mL: 640%
  activity at 0.001 µg/mL: 252%
[3]
  activity at 0.1 µg/mL: 838%
  activity at 0.01 µg/mL: 659%
[4]
  Survival days ave. ± s. d.: 13.8 ± 0.4 days
  response vs control in vivo at 0.1 mg/kg: 108%

## CCCCCCCCCCCCCCCCCCCCCC[C@@H](O)C(=O)N[C@@H](CO[C@H]1O[C@H](CO)[C@H](O)[C@H](O[C@@H]2O[C@@H]([C@H](O)CO)[C@H](O)[C@H]2O)[C@H]1O)[C@H](O)[C@H](O)CCCCCCCCCCCC(C)C [Compound 15, O-β-D-galactofuranosyl-(1→3)-O-α-D-galactopyranosyl-(1→1)-(2S,3S,4R)-2-amino-N-[(R)-2-hydroxytetracosanoyl]-16-methyl-1,3,4-heptadecanetriol]
[1]
  activity at 1 µg/mL: 295%
  activity at 0.1 µg/mL: 253%
[2]
  activity at 1 µg/mL: 845%
  activity at 0.001 µg/mL: 394%
[3]
  activity at 0.1 µg/mL: 501%
  activity at 0.01 µg/mL: 291%
[4]
  Survival days ave. ± s. d.: 14.0 ± 0 days
  response vs control in vivo at 0.1 mg/kg: 109%

## CCCCCCCCCCCCCCCCCCCCCC[C@@H](O)C(=O)N[C@@H](CO[C@H]1O[C@H](CO)[C@H](O)[C@H](O[C@@H]2O[C@@H]([C@H](O)CO)[C@H](O)[C@H]2O)[C@H]1O)[C@H](O)[C@H](O)CCCCCCCCCCCCCC [Compound 16, O-β-D-galactofuranosyl-(1→3)-O-α-D-galactopyranosyl-(1→1)-(2S,3S,4R)-2-amino-N-[(R)-2-hydroxytetracosanoyl]-1,3,4-octadecanetriol]
[1]
  activity at 1 µg/mL: 274%
  activity at 0.1 µg/mL: 262%
[2]
  activity at 1 µg/mL: 740%
  activity at 0.001 µg/mL: 702%
[3]
  activity at 0.1 µg/mL: 325%
  activity at 0.01 µg/mL: 296%
[4]
  Survival days ave. ± s. d.: 14.8 ± 0.8 days
  response vs control in vivo at 0.1 mg/kg: 116%

## CCCCCCCCCCCCCCCCCCCCC[C@@H](O)C(=O)N[C@@H](CO[C@H]1O[C@H](CO)[C@H](O)[C@H](O[C@@H]2O[C@@H]([C@H](O)CO)[C@H](O)[C@H]2O)[C@H]1O)[C@H](O)[C@H](O)CCCCCCCCCCCC [Compound 11, O-β-D-galactofuranosyl-(1→3)-O-α-D-galactopyranosyl-(1→1)-(2S,3S,4R)-2-amino-N-[(R)-2-hydroxytricosanoyl]-1,3,4-hexadecanetriol]
[1]
  activity at 1 µg/mL: 225%
  activity at 0.1 µg/mL: 258%
[2]
  activity at 1 µg/mL: 646%
  activity at 0.01 µg/mL: 858%
  activity at 0.001 µg/mL: 116%
[3]
  activity at 0.1 µg/mL: 410%
  activity at 0.01 µg/mL: 281%
[4]
  Survival days ave. ± s. d.: 13.4 ± 0.5 days
  response vs control in vivo at 0.1 mg/kg: 105%

## CCCCCCCCCCCCCCCCCCCCCC[C@@H](O)C(=O)N[C@@H](CO[C@H]1O[C@H](CO)[C@H](O)[C@H](O[C@@H]2O[C@@H]([C@H](O)CO)[C@H](O)[C@H]2O)[C@H]1O)[C@H](O)[C@H](O)CCCCCCCCCCCCC(C)C [Compound 17, O-β-D-galactofuranosyl-(1→3)-O-α-D-galactopyranosyl-(1→1)-(2S,3S,4R)-2-amino-N-[(R)-2-hydroxytetracosanoyl]-17-methyl-1,3,4-octadecanetriol]
[1]
  activity at 1 µg/mL: 283%
  activity at 0.1 µg/mL: 242%
[2]
  activity at 1 µg/mL: 781%
  activity at 0.001 µg/mL: 767%
[3]
  activity at 0.1 µg/mL: 592%
[4]
  Survival days ave. ± s. d.: 14.8 ± 0.8 days
  response vs control in vivo at 0.1 mg/kg: 116%

## CCCCCCCCCCCCCCCCCCCCCCCCCC(=O)N[C@@H](CO[C@H]1O[C@H](CO)[C@@H](O[C@H]2O[C@H](CO)[C@@H](O)[C@H](O)[C@H]2O)[C@H](O)[C@H]1O)[C@H](O)[C@H](O)CCCCCCCCCCCCCC [Compound 35, O-α-D-glucopyranosyl-(1→4)-O-α-D-glucopyranosyl-(1→1)-(2S,3S,4R)-2-amino-N-hexacosanoyl-1,3,4-octadecanetriol]
[1]
  activity at 1 µg/mL: 165%
  activity at 0.1 µg/mL: 133%
[2]
  activity at 1 µg/mL: 431%
  activity at 0.1 µg/mL: 874%
  activity at 0.01 µg/mL: 803%
  activity at 0.001 µg/mL: 538%
[3]
  activity at 0.1 µg/mL: 223%
  activity at 0.01 µg/mL: 148%
[4]
  Survival days ave. ± s. d.: 14.8 ± 1.3 days
  response vs control in vivo at 0.1 mg/kg: 116%
[4]; P388 s.c. system
  life-span-prolonging effect (anti-tumor effect), in words: intensive anti-tumor effects almost in the same level as that of Compound b

## CCCCCCCCCCCCCCCCCCCCCC[C@@H](O)C(=O)N[C@@H](CO[C@H]1O[C@H](CO)[C@H](O)[C@H](O[C@@H]2O[C@@H]([C@H](O)CO)[C@H](O)[C@H]2O)[C@H]1O)[C@H](O)[C@H](O)CCCCCCCCCCCC [Compound 12, O-β-D-galactofuranosyl-(1→3)-O-α-D-galactopyranosyl-(1→1)-(2S,3S,4R)-2-amino-N-[(R)-2-hydroxytetracosanoyl]-1,3,4-hexadecanetriol]
[1]
  activity at 1 µg/mL: 203%
  activity at 0.1 µg/mL: 187%
[2]
  activity at 1 µg/mL: 509%
  activity at 0.1 µg/mL: 982%
  activity at 0.01 µg/mL: 772%
  activity at 0.001 µg/mL: 113%
[3]
  activity at 0.1 µg/mL: 381%
  activity at 0.01 µg/mL: 378%
[4]
  Survival days ave. ± s. d.: 13.8 ± 0.8 days
  response vs control in vivo at 0.1 mg/kg: 108%

## CCCCCCCCCCCCCCCCCCCC[C@@H](O)C(=O)N[C@@H](CO[C@H]1O[C@H](CO)[C@H](O)[C@H](O[C@@H]2O[C@@H]([C@H](O)CO)[C@H](O)[C@H]2O)[C@H]1O)[C@H](O)[C@H](O)CCCCCCCCCCCC [Compound 10, O-β-D-galactofuranosyl-(1→3)-O-α-D-galactopyranosyl-(1→1)-(2S,3S,4R)-2-amino-N-[(R)-2-hydroxydocosanoyl]-1,3,4-hexadecanetriol]
[1]
  activity at 1 µg/mL: 174%
  activity at 0.1 µg/mL: 132%
[2]
  activity at 1 µg/mL: 509%
  activity at 0.1 µg/mL: 375%
  activity at 0.01 µg/mL: 277%
  activity at 0.001 µg/mL: 102%
[3]
  activity at 0.1 µg/mL: 286%
  activity at 0.01 µg/mL: 147%
[4]
  Survival days ave. ± s. d.: 13.8 ± 0.4 days
  response vs control in vivo at 0.1 mg/kg: 108%
